Measurements as given in patent US5882881A, “Inhibition of cyst formation by cytoskeletal specific drugs” (priority 1998, dated 1999).

Experiments:
homozygous cpk mice = experiment: Survival of cpk mice on weekly intraperitoneal treatment (Example 8, FIG. 2); format: in vivo, mouse
From the text: Untreated and methotrexate (MTX) treated polycystic cpk mice all died before 30 days of age. Most polycystic cpk mice treated with weekly taxol survive more than 60 days. The dotted line starting at day 120 indicates the number and age of apparently healthy taxol treated polycystic mice that were sacrificed for histology studies. Pairs of mice were sacrificed at 120 days, 182 days and 210 days of age.
In order to determine whether taxol prevents cyst formation by inhibiting cell division, another drug known to have anti-mitotic activity, methotrexate, was tested for its ability to treat homozygous cpk mice. Six cpk mice were injected intraperitoneally with 15 μl of methotrexate solution (1.1 mg/ml in water) 10-12 days after birth and once every week thereafter. The methotrexate-injected mice survived until between 18 and 27 days after birth, with only one mouse living longer than 28 days. […] Therefore, the anti-mitotic activity of taxol cannot explain its ability to treat CPK mice having a polycystic-type kidney disease. Rather, the results from in vitro tests indicate that agents which interfere with the function of the cytoskeleton, or which inhibit the delivery of membrane proteins are useful in treating cystic diseases such as Polycystic Kidney Disease.
Eleven homozygous cpk mice, raised and identified as in Example 6 were treated with 15 μl of 10 mg/ml taxol in DMSO through intraperitoneal injection beginning 11-14 days after birth. Following the first treatment, the mice were administered with the same treatment once every week thereafter. As controls, 6 cpk mice were treated with 15 μl intraperitoneal injections of DMSO beginning 10-12 days after birth and then once every week thereafter.

Murine CPK Cells = experiment: In vitro cyst formation and cyst size in suspension culture of murine CPK cells; format: cell-based, mouse
Method: At 10, 21 and 28 days after birth, mice having congenital polycystic kidney disease (CPK) and their phenotypically normal littermates were sacrificed by cervical dislocation. Kidneys were harvested aseptically and washed with DMEM/F12 (Sigma Chemical Co., St. Louis, Mo.) in a 1:1 mix. Each decapsulated kidney was chopped into cubes (1 mm) and incubated in 5 ml of collagenase solution composed of 1 mg/ml collagenase type IV (Worthington Biochemical Corporation, Freehold, N.J.), 1 mg/ml egg white trypsin inhibitor (Worthington) in 1:1 DMEM/F12.
The top 12 mls, which contained both single cells and aggregates of up to 10 cells, as assessed by inverted phase-ontrast microscopy, were placed in 2 ml aliquots in the wells of plastic culture plates (Corning, N.Y.) precoated with 1% agarose in DMEM:F12 (2 ml in each well of a 6-well plate; 1 ml in each well of a 24-well plate). Cell samples were digested with further incubation for 10 minutes in 0.05% trypsin and 0.53 mM EDTA (Gibco, BRL Gaithesburg, Md.) at 37° C. All cultures were plated at a final density of 1-3×10^4 cell, per well. For growth studies of monolayer cells, identical preparations were grown on the plastic surface of the culture plates. Both the monolayers and the cell suspensions were incubated at 37° C. in a moisture saturated incubator in 5% CO2 and air.
I used the in vitro cyst formation system of the present invention to analyze compounds that affect the process of cyst formation. To determine the therapeutic effectiveness of an agent, cyst-forming cells are suspended in a medium to which the agent has been added. These cells are then cultured on a solid phase without formation of a layer of cells on the surface, such as in the assay system described in Example 1. The extent to which the cells actually form cysts can be detected and compared to the extent of cyst formation expected if no agent were added. If the amount of cyst formation is lower than expected, then the agent is a good candidate for therapeutic intervention of cystic diseases.
The effects of various metabolic inhibitors on cyst formation were studied in cultures derived from day 21 postnatal CPK mice. […] Taxol (25 μM), a microtubule specific inhibitor, was from Calbiochem (La Jolla, Calif.). All other chemicals were obtained from Sigma Chemical Co. Cytosine arabinoside was added at the final concentration of 20 μg/ml to inhibit DNA synthesis; α-amanitin at 100 ng/ml to inhibit RNA synthesis; cycloheximide at 40 μg/ml to inhibit protein synthesis; amiloride at 1 mM to inhibit the renal epithelial Na^+ -H^+ exchange; ouabain at 0.5 mM to inhibit Na^+ -K^+ -ATPase; brefeldin-A at 10 μg/ml to inhibit transport of surface proteins; griseofulvin at 350 μM to inhibit microtubule function; colchicine at 10 μM to inhibit microtubule polymerization; and cytochalasin-B and cytochalasin-D at 10 μM to depolymerize actin filaments.
In the presence of these metabolic inhibitors in vitro, cyst formation was noted to be either present or absent; if present, the diameters of 20 cysts from a 0.2 ml aliquot were measured. In the same samples, ^3 H-dThd incorporation was also measured as described above. […] After each wash, cell clusters were collected by centrifuging at 200×g for 1 minute and the supernatant discarded. Washed cell clusters were resuspended in the original volume of growth medium without inhibitors, placed in agarose coated wells and incubated at 37° C. in a moisture saturated incubator in 5% CO2 and air.
In this table, the mean cyst size is reported as ±SD with a measurement of twenty cysts. The ^3 H-dThd incorporation is reported as ±SD using measurements of three wells. The * indicates […] versus control. […] The entries listed as "NA" in the table indicate data that is not available.

CC(=O)O[C@H]1C(=O)[C@@]2(C)[C@H]([C@H](OC(=O)c3ccccc3)[C@]3(O)C[C@H](OC(=O)[C@H](O)[C@@H](NC(=O)c4ccccc4)c4ccccc4)C(C)=C1C3(C)C)[C@]1(OC(C)=O)CO[C@@H]1C[C@@H]2O [Taxol]
survival (in words) (homozygous cpk mice; weekly i.p., versus untreated or DMSO): generally experienced substantially longer life spans
condition of treated polycystic mice (in words) (homozygous cpk mice; weekly taxol, pairs sacrificed at 120, 182 and 210 days of age): remained active until sacrifice and attained adult size and weight, despite having palpably enlarged kidneys
Cyst Size (Murine CPK Cells; mean ± SD of twenty cysts, concentrations as in Table II, control 71 ± 22): 0 μm
cyst formation (in words) (Murine CPK Cells; murine CPK cells, 24 h suspension culture, ouabain 0.5 mM, also 1 mM, b155 taxol 25 μM, colchicine 10 μM, vinblastine 1 μM, cytochalasins 10 μM, model species not given): reversibly inhibited in vitro cyst formation in both models
